Values after ≈ are worked out from the molar mass of the structure shown. Read-outs that look alike come from different tables or passages of the source.
What was measured:
[1] = system: Vancomycin-resistant E. faecium; assay: MIC by agar dilution (CLSI-M100-S18), Taiwan Enterococci isolates; assay type: cell-based, Enterococcus faecium
Method: (§1) Compound 1 was tested for its inhibitory effect against multidrug-resistant Methicillin-resistant Staphylococcus aureus and Enterococci obtained by 10 medical centers in all regions of Taiwan. MICs were determined using the agar dilution methods recommended by the Clinical and Laboratory Standards Institute (CLSI-M100-S18).

[2] = system: Staphylococcus aureus strains (MRSA, hVISA, VISA, VRSA, quinolone-resistant MRSA); assay: MIC by agar dilution against Staphylococcal strains (MRSA, hVISA, VISA, VRSA, quinolone-resistant MRSA); assay type: cell-based; conditions: for MIC50 / MIC90 / MIC: Staphylococcus aureus
Method: Compound 1 was tested for its inhibitory effect against 26 Methicillin-resistant Staphylococcus aureus (MRSA) strains, 2 hetero-Vancomycin intermediate Staphylococcus aureus (hVISA) strains, 24 Vancomycin-intermediate Staphylococcus aureus (VISA) strains, 5 Vancomycin-resistant Staphylococcus aureus (VRSA) strains, and 31 quinolone-resistant Vancomycin-susceptibale MRSA strains with defined mutations in QRDR. These mutations were determined by sequencing analysis of the QRDR (gyrA, gyrB, grlA, and grlB). Efflux testing was performed by the reserpine method (Brenwald, et al., Antimicrob. Agents Chemother. 1998, 42: 2032-2035).

E. faecalis = assay: CANWARD 2007 gram-positive cocci, CLSI broth microdilution; assay type: cell-based; parameters: unit not given beside the values; conditions: E. faecalis (81)
Method: (§2) From January-December 2007, 12 hospitals across Canada submitted isolates from patients attending hospital clinics, emergency rooms, medical and surgical wards, and intensive care units. 7881 isolates (CANWARD 2007) were collected including 3473 gram-positive cocci. Susceptibility testing for Compound 1 and Levofloxacin was performed using the Clinical and Laboratory Standards Institute broth microdilution.

[3] = system: multidrug-resistant Methicillin-resistant Staphylococcus aureus; assay: MIC by agar dilution (CLSI-M100-S18), Taiwan multidrug-resistant MRSA isolates; assay type: cell-based; conditions: for MIC50 / MIC90: Staphylococcus aureus, MRSA
Method: as §1

S. pneumoniae = assay: CANWARD 2007 gram-positive cocci, CLSI broth microdilution; assay type: cell-based, Streptococcus pneumoniae; parameters: MIC50 / MIC90: unit not given here
Method: as §2

H. pylori isolates = assay: MIC by agar dilution against 200 H. pylori isolates (Taiwan); assay type: cell-based, Helicobacter pylori
Method: MICs were determined using the agar dilution methods recommended by the Clinical and Laboratory Standards Institute (CLSI-M100-S18).

[4] = system: S. aureus (MSSA, CA-MRSA, HA-MRSA, VISA, VRSA); assay: CANWARD 2007 / NARSA gram-positive cocci, CLSI broth microdilution; assay type: cell-based, Staphylococcus aureus; parameters: MIC50 / MIC90: unit not given here
Method: as §2

[5] = Pharmacokinetic assays of plasma of subjects taking Compound 1; conditions: for Cmax: day 10, plasma; for Free AUC0-24 / Free Cmax: corrected for plasma protein binding
Method: 5 mL of each sample was transferred to a heparin sodium tube and immediately placed on ice. Plasma was separated by centrifugation at approximately 4° C. and transferred to appropriately labeled polypropylene specimen containers (two tubes with 1-1.5 mL plasma/tube) and frozen at approximately −70° C. before use.
Prior to analysis of the blood samples, pharmacokinetic assays were validated.
The pharmacokinetic assays of the blood samples were performed by Charles River Laboratories (Worcester, Mass.).

[6] = Enterococcus faecium, Vancomycin-resistant E. faecium (n = 78)
[7] = hVISA(2) + VISA (24) + VRSA (5)
[8] = Ciprofloxacin-resistant MRSA (n = 20)
[9] = Ciprofloxacin-susceptible MRSA (n = 20)
[10] = Daptomycin-nonsusceptible MRSA (n = 5)
[11] = Vancomycin-intermediate MRSA (n = 50)
[12] = Helicobacter pylori, 200 isolates of H. pylori
[13] = 500 mg q24 p.o., MIC90 0.125 μg/mL
[14] = 500 mg q24 p.o., MIC90 0.5 μg/mL
[15] = 500 mg q24 p.o., MIC90 0.75 μg/mL
[16] = 750 mg q24 p.o., MIC90 0.125 μg/mL
[17] = 750 mg q24 p.o., MIC90 0.5 μg/mL
[18] = 750 mg q24 p.o., MIC90 0.75 μg/mL
[19] = 1000 mg q24 p.o., MIC90 0.125 μg/mL
[20] = 1000 mg q24 p.o., MIC90 0.5 μg/mL
[21] = 1000 mg q24 p.o., MIC90 0.75 μg/mL
[22] = 1000 mg q24 p.o., MIC90 1 μg/mL

COc1c(N2C[C@@H](C)C[C@H](N)C2)ccc2c(=O)c(C(=O)O)cn(C3CC3)c12 [Compound 1, (3S,5S)-7-[3-amino-5-methyl-piperidinyl]-1-cyclopropyl-1,4-dihydro-8-methoxy-4-oxo-3-quinolinecarboxylic acid]
MIC50 [1, 6]: 4 µg/mL (≈ 10.8 µM) | MIC90 [1, 6]: 16 µg/mL (≈ 43.1 µM) | MIC Range ([1]; Vancomycin-resistant E. faecium (n = 78)): 0.06 to 16 µg/mL | inhibition (in words) ([1]; Vancomycin-resistant Enterococcus faecium): effective | inhibition (in words) ([2]; Methicillin-resistant, hVISA, VISA, VRSA and quinolone-resistant Vancomycin-susceptible MRSA isolates): effectively inhibited | MIC50 ([2]; MRSA (26)): 0.03 µg/mL (≈ 0.0808 µM) | MIC90 ([2]; MRSA (26)): 0.06 µg/mL (≈ 0.162 µM) | MIC50 ([2]; Quinolone-resistant MRSA (31)): 1 µg/mL (≈ 2.69 µM) | MIC90 ([2]; Quinolone-resistant MRSA (31)): 2 µg/mL (≈ 5.38 µM) | MIC50 [2, 7]: 1 µg/mL | MIC90 [2, 7]: 2 µg/mL | MIC ([2]; read-out: MIC Range, MRSA (26)): 0.016 to 0.06 µg/mL (≈ 0.0431 to 0.162 µM) | MIC ([2]; read-out: MIC Range, Quinolone-resistant MRSA (31)): 0.5 to 4 µg/mL (≈ 1.35 to 10.8 µM) | MIC ([2]; read-out: MIC Range, hVISA(2) + VISA (24) + VRSA (5)): 0.06 to 2 µg/mL | MIC ([2]; read-out: MICs, against these strains): 0.06 to 4 µg/mL (≈ 0.162 to 10.8 µM) | MIC50 (E. faecalis): 0.12 | MIC90 (E. faecalis): 1 | MIC Range [3, 8]: 0.5 to 1 µg/mL | MIC Range [3, 9]: ≦0.03-0.06 μg/mL | MIC Range [3, 10]: 0.5 to 1 µg/mL | inhibition (in words) ([3]; MRSA isolates that are Ciprofloxacin-resistant, Vancomycin-intermediate-resistant, Daptomycin-nonsusceptible): effective | MIC50 [3, 8]: 0.5 µg/mL (≈ 1.35 µM) | MIC90 [3, 8]: 1 µg/mL (≈ 2.69 µM) | MIC50 [3, 9]: ≤ 0.03 µg/mL | MIC90 [3, 9]: ≤ 0.03 µg/mL | MIC50 [3, 10]: 0.5 µg/mL (≈ 1.35 µM) | MIC90 [3, 10]: 1 µg/mL (≈ 2.69 µM) | MIC50 [3, 11]: 0.5 µg/mL (≈ 1.35 µM) | MIC90 [3, 11]: 2 µg/mL (≈ 5.38 µM) | MIC Range [3, 11]: 0.03 to 8 µg/mL | activity compared with Levofloxacin (in words) (S. pneumoniae; PenI-SPN, PenR-SPN, CipR-SPN): more active than Levofloxacin | MIC50 (S. pneumoniae; SPN CipR (29)): 0.03 | MIC90 (S. pneumoniae; SPN CipR (29)): 0.12 | MIC50 (S. pneumoniae; SPN PenI (103)): 0.015/0.015 | MIC90 (S. pneumoniae; SPN PenI (103)): 0.015/0.015 | MIC50 (S. pneumoniae; SPN PenR (34)): 0.015 | MIC90 (S. pneumoniae; SPN PenR (34)): 0.03 | MIC50 (S. pneumoniae; SPN PenS (519)): 0.015/0.015 | MIC90 (S. pneumoniae; SPN PenS (519)): 0.015/0.015 | MIC50 (S. pneumoniae; SPN-All (656)): 0.015/0.015 | MIC90 (S. pneumoniae; SPN-All (656)): 0.015/0.015 | inhibition (in words) (H. pylori isolates; H. pylori isolates): effectively inhibited | inhibition compared with other quinolones (in words) (H. pylori isolates; H. pylori isolates): more effective in inhibiting the isolates of H. pylori than Ciprofloxacin, Levofloxacin, and Moxifloxacin, and comparable to Gemifloxacin | MIC50 (H. pylori isolates; [12]): 60 µg/mL (≈ 162 µM) | MIC90 (H. pylori isolates; [12]): 250 µg/mL (≈ 673 µM) | MIC50 ([4]; CA-MRSA (23)): 0.25 | MIC90 ([4]; CA-MRSA (23)): 0.5 | MIC50 ([4]; HA-MRSA (91)): 4/>4 | MIC90 ([4]; HA-MRSA (91)): 4/>4 | activity compared with Levofloxacin (in words) ([4]; MRSA, VISA, VRSA): more active than Levofloxacin | MIC50 ([4]; MSSA (372)): 0.03 | MIC90 ([4]; MSSA (372)): 0.12 | MIC50 ([4]; VISA (12), NARSA isolates): 1 | MIC90 ([4]; VISA (12), NARSA isolates): 2 | median MIC (single value under head MIC50/MIC90) ([4]; VRSA (7), NARSA isolates): 2 | Cmax ([5]; 500 mg q24 p.o.): 5560 ng/mL | Free AUC0-24/MIC90 ratio at steady state [5, 13]: 259 | Free Cmax/MIC90 ratio at steady state [5, 13]: 37 | Free AUC0-24/MIC90 ratio at steady state [5, 14]: 65 | Free Cmax/MIC90 ratio at steady state [5, 14]: 9 | Free AUC0-24/MIC90 ratio at steady state [5, 15]: 43 | Free Cmax/MIC90 ratio at steady state [5, 15]: 6 | Free AUC0-24/MIC90 ratio at steady state ([5]; 500 mg q24 p.o., MIC90 1 μg/mL): 32 | Free Cmax/MIC90 ratio at steady state ([5]; 500 mg q24 p.o., MIC90 1 μg/mL): 5 | Free AUC0-24/MIC90 ratio at steady state ([5]; 500 mg q24 p.o., MIC90 […]): 130 | Free Cmax/MIC90 ratio at steady state ([5]; 500 mg q24 p.o., MIC90 […]): 19 | Free AUC0-24 ([5]; 500 mg q24 p.o.): 32400 ng·h/mL | Free Cmax ([5]; 500 mg q24 p.o.): 4700 ng/mL | Cmax ([5]; 750 mg q24 p.o.): 6820 ng/mL | Free AUC0-24/MIC90 ratio at steady state [5, 16]: 393 | Free Cmax/MIC90 ratio at steady state [5, 16]: 46 | Free AUC0-24/MIC90 ratio at steady state [5, 17]: 98 | Free Cmax/MIC90 ratio at steady state [5, 17]: 11 | Free AUC0-24/MIC90 ratio at steady state [5, 18]: 65 | Free Cmax/MIC90 ratio at steady state [5, 18]: 8 | Free AUC0-24/MIC90 ratio at steady state ([5]; 750 mg q24 p.o., MIC90 1 μg/mL): 49 | Free Cmax/MIC90 ratio at steady state ([5]; 750 mg q24 p.o., MIC90 1 μg/mL): 6 | Free AUC0-24/MIC90 ratio at steady state ([5]; 750 mg q24 p.o., MIC90 […]): 196 | Free Cmax/MIC90 ratio at steady state ([5]; 750 mg q24 p.o., MIC90 […]): 23 | Free AUC0-24 ([5]; 750 mg q24 p.o.): 49100 ng·h/mL | Free Cmax ([5]; 750 mg q24 p.o.): 5700 ng/mL | Cmax ([5]; 1000 mg q24 p.o.): 8200 ng/mL | Free AUC0-24/MIC90 ratio at steady state [5, 19]: 503 | Free Cmax/MIC90 ratio at steady state [5, 19]: 55 | Free AUC0-24/MIC90 ratio at steady state [5, 20]: 126 | Free Cmax/MIC90 ratio at steady state [5, 20]: 14 | Free AUC0-24/MIC90 ratio at steady state [5, 21]: 84 | Free Cmax/MIC90 ratio at steady state [5, 21]: 9 | Free AUC0-24/MIC90 ratio at steady state [5, 22]: 63 | Free Cmax/MIC90 ratio at steady state [5, 22]: 7 | Free AUC0-24/MIC90 ratio at steady state ([5]; 1000 mg q24 p.o., MIC90 […]): 251 | Free Cmax/MIC90 ratio at steady state ([5]; 1000 mg q24 p.o., MIC90 […]): 28 | Free AUC0-24 ([5]; 1000 mg q24 p.o.): 62900 ng·h/mL | Free Cmax ([5]; 1000 mg q24 p.o.): 6900 ng/mL

— patent publication US8211909B2, “Treatment of antibiotic-resistant bacteria infection” (TaiGen Biotechnology Co., Ltd., priority 2008, dated 2012)
